Among the data in ChEMBL document CHEMBL1141589, “Synthesis and biological evaluation of NO-donor-tacrine hybrids as hepatoprotective anti-Alzheimer drug candidates” (J Med Chem, 2008) are IC50 and EC50 values, retold here.

One test has as its target Acetylcholinesterase (Homo sapiens, UniProt P22303). Nature of the test: Inhibition of AChE by Ellman's assay. (In Ellman's method for cholinesterases, released thiocholine reacts with DTNB.)
For the next test, the target named is Cholinesterase (Homo sapiens, UniProt P06276).
The next test deals with Artery. The test is described as follows: tissue or blood. The following applies: Sus scrofa.

Sequence of Cholinesterase (P06276 whole entry): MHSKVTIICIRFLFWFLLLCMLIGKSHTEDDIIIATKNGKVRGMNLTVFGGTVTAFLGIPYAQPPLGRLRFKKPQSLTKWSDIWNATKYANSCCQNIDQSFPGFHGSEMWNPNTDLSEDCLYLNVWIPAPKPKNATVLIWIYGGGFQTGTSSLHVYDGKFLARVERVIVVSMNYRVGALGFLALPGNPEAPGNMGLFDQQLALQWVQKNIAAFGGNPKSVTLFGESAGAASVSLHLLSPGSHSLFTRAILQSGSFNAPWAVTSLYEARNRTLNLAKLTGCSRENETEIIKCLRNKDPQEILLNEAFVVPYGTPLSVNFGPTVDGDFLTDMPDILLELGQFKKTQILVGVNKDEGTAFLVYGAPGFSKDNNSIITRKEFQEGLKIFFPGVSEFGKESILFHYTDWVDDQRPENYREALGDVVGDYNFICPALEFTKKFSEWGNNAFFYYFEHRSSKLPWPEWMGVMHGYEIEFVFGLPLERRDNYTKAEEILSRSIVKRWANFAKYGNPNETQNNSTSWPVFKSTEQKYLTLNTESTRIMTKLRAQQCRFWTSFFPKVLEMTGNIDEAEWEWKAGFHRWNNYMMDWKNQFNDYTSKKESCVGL
Sequence of Acetylcholinesterase (P22303 whole entry): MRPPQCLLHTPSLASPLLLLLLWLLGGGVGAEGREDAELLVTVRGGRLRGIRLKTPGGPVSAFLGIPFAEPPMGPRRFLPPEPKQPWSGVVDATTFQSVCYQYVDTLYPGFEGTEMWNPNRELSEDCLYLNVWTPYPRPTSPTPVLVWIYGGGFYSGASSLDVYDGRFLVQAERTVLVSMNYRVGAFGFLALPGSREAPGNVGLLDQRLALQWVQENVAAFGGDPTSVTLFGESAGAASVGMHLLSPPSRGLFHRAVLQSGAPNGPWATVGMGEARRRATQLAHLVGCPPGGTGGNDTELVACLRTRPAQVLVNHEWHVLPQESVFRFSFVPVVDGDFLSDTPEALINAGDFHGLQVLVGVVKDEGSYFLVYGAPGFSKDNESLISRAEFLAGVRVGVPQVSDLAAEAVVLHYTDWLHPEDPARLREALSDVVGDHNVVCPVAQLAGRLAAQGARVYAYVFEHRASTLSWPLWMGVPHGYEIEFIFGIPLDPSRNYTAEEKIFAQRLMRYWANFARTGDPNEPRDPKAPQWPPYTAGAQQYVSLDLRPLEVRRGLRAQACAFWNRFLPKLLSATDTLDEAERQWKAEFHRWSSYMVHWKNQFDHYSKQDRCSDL
Description for Artery: Vasorelaxation activity in PGF2-alpha-precontracted pig pulmonary artery

For `O=[N+]([O-])OCCCCCCNCCCCNc1c2c(nc3ccccc13)CCCC2`, the figures for the IC50 against Acetylcholinesterase and at Cholinesterase were 18.1 nM and 10.8 nM, respectively.
The like results for `O=C(CO/N=[N+](\[O-])N1CCCC1)NCCCCNc1c2c(nc3ccccc13)CCCC2` were, in that order, 50.7 nM and 41 nM.
As for `O=[N+]([O-])OCCCCCCNCCCNc1c2c(nc3ccccc13)CCCC2`, the IC50 – broadly, the midpoint of a concentration-inhibition curve – amounted to 6.3 nM against Acetylcholinesterase and 21.7 nM on Cholinesterase.
Regarding `O=C(CCO[N+](=O)[O-])NCCCNc1c2c(nc3ccccc13)CCCC2`, the IC50 came to 93 nM at Acetylcholinesterase and 28 nM at Cholinesterase.
With `O=C(CO[N+](=O)[O-])NCCCNc1c2c(nc3ccccc13)CCCC2`, the IC50 on Acetylcholinesterase worked out at 28.2 nM; at Cholinesterase it was 13.5 nM. Besides, the midpoint of the response in the test with Artery, the EC50, lay at 3680 nM.
Consider `CC(C)(CO[N+](=O)[O-])C(=O)NCCCNc1c2c(nc3ccccc13)CCCC2`, for which the figures for the IC50 at Acetylcholinesterase and on Cholinesterase were 69.5 nM and 5.5 nM, respectively.
On to `O=[N+]([O-])OCCCNCCCNc1c2c(nc3ccccc13)CCCC2`, for which the values for the IC50 on Acetylcholinesterase and at Cholinesterase were 6.4 nM and 5.5 nM, respectively.
On to `CC(C)(C)C(=O)NCCCCNc1c2c(nc3ccccc13)CCCC2`, for which the values for the IC50 against Acetylcholinesterase and against Cholinesterase were 21.6 nM and 36.5 nM, respectively.
On to `CC(C)(CO[N+](=O)[O-])C(=O)NCCCCNc1c2c(nc3ccccc13)CCCC2`, for which the IC50 against Acetylcholinesterase was 226 nM; against Cholinesterase it was 7.3 nM. In addition, the EC50 (as a rule, the concentration giving half of the maximal effect) in the test with Artery came out at 10500 nM.
`O=[N+]([O-])OCCNCCCNc1c2c(nc3ccccc13)CCCC2`: the IC50 on Acetylcholinesterase turned out to be 10 nM; against Cholinesterase, 5.2 nM.
Turning to `O=C(CCO[N+](=O)[O-])NCCCCNc1c2c(nc3ccccc13)CCCC2`, the results for the IC50 against Acetylcholinesterase and at Cholinesterase were 45.7 nM and 15.1 nM, respectively.
With `O=C(CO/N=[N+](\[O-])N1CCCC1)NCCCNc1c2c(nc3ccccc13)CCCC2`, the IC50 at Acetylcholinesterase turned out to be 35.5 nM; against Cholinesterase it was 15.3 nM. The molecule also had an EC50 with Artery of 22500 nM.
With `O=C(CO[N+](=O)[O-])NCCCCNc1c2c(nc3ccccc13)CCCC2`, the IC50 turned out to be 22.6 nM at Acetylcholinesterase and 12.1 nM against Cholinesterase.
The like results for `O=[N+]([O-])OCCNCCCCNc1c2c(nc3ccccc13)CCCC2` were, in that order, 11.1 nM and 13.8 nM.
Consider `O=[N+]([O-])OCCCNCCCCNc1c2c(nc3ccccc13)CCCC2`, for which the IC50 is 5.6 nM against Acetylcholinesterase and 9.9 nM against Cholinesterase. The same molecule displayed an EC50 in the test with Artery of 8800 nM.
In the test on Artery, `O=[N+]([O-])O[C@H]1CO[C@H]2[C@@H]1OC[C@H]2O[N+](=O)[O-]` [ISOSORBIDE DINITRATE] displayed an EC50 of 420 nM.
